Test results taken from ChEMBL document CHEMBL6182832, “Design and synthesis of coumarin-based amphoteric antimicrobials with biofilm interference and immunoregulation effects” (RSC Med Chem, 2025).
≈ marks a conversion by molar mass, not a printed value. Calls of active or inactive are those of the source. The rule behind the calls is not given here.

Legend:
[1] = tested on: Escherichia coli; test: Antibacterial activity against clinically isolated Escherichia coli ATCC25922 assessed as inhibition of bacterial growth measured after 16 to 24 hrs by broth microdilution method; type: functional; settings: time 16-24 hrs, read-out: MIC100
[2] = tested on: Escherichia coli; test: Antibacterial activity against clinically isolated Escherichia coli DE17 assessed as inhibition of bacterial growth measured after 16 to 24 hrs by broth microdilution method; type: functional; settings: time 16-24 hrs, read-out: MIC100
[3] = tested on: Staphylococcus aureus; test: Antibacterial activity against clinically isolated Staphylococcus aureus ATCC29213 assessed as inhibition of bacterial growth measured after 16 to 24 hrs by broth microdilution method; type: functional; settings: time 16-24 hrs, read-out: MIC100
[4] = tested on: Staphylococcus aureus; test: Antibacterial activity against clinically isolated methicillin-resistant Staphylococcus aureus assessed as inhibition of bacterial growth measured after 16 to 24 hrs by broth microdilution method; type: functional; settings: time 16-24 hrs, read-out: MIC100
[5] = tested on: Bacillus subtilis; test: Antibacterial activity against clinically isolated Bacillus subtilis ATCC6633 assessed as inhibition of bacterial growth measured after 16 to 24 hrs by broth microdilution method; type: functional; settings: time 16-24 hrs, read-out: MIC100
[6] = tested on: Bacillus cereus; test: Antibacterial activity against clinically isolated Bacillus cereus CMCC63303 assessed as inhibition of bacterial growth measured after 16 to 24 hrs by broth microdilution method; type: functional; settings: time 16-24 hrs, read-out: MIC100
[7] = tested on: Listeria monocytogenes; test: Antibacterial activity against clinically isolated Listeria monocytogenes CICC21662 assessed as inhibition of bacterial growth measured after 16 to 24 hrs by broth microdilution method; type: functional; settings: time 16-24 hrs, read-out: MIC100
[8] = tested on: Enterococcus faecalis; test: Antibacterial activity against clinically isolated Enterococcus faecalis ATCC29212 assessed as inhibition of bacterial growth measured after 16 to 24 hrs by broth microdilution method; type: functional; settings: time 16-24 hrs, read-out: MIC100
[9] = Hemolytic activity in rabbit erythrocytes assessed as hemolysis at >8 ug/ml; type: toxicity, cell-based, Oryctolagus cuniculus; settings: erythrocyte, dose > 8 µg/ml
[10] = In vivo toxicity in KM mouse assessed as survival rate at 40 mg/kg, sc relative to control; type: organism-based
[11] = In vivo toxicity in KM mouse assessed as survival rate at 20 mg/kg, sc relative to control; type: organism-based
[12] = In vivo toxicity in KM mouse assessed as survival rate at 15 mg/kg, sc relative to control; type: organism-based
[13] = In vivo toxicity in KM mouse assessed as survival rate at 10 mg/kg, sc relative to control; type: organism-based
[14] = In vivo toxicity in KM mouse assessed as survival rate at 5 mg/kg, sc relative to control; type: organism-based
[15] = In vivo toxicity in KM mouse assessed as redness and swelling skin at site of compound administration at 20 to 40 mg/kg, sc; type: organism-based; settings: dose 20-40 mg/kg
[16] = In vivo toxicity in KM mouse assessed as platelet count (PLT) in blood collected from eyes of mouse at 15 mg/kg, sc; type: organism-based
[17] = In vivo toxicity in KM mouse assessed as hemoglobin (HGB) in blood collected from eyes of mouse at 15 mg/kg, sc; type: organism-based
[18] = In vivo toxicity in KM mouse assessed as red blood cells (RBC) in blood collected from eyes of mouse at 15 mg/kg, sc; type: organism-based
[19] = In vivo toxicity in KM mouse assessed as mean corpuscular volume (MCV) in blood collected from eyes of mouse at 15 mg/kg, sc; type: organism-based
[20] = In vivo toxicity in KM mouse assessed as hematocrit (HCT) in blood collected from eyes of mouse at 15 mg/kg, sc; type: organism-based
[21] = In vivo toxicity in KM mouse assessed as white blood cells (WBC) in blood collected from eyes of mouse at 15 mg/kg, sc; type: organism-based
[22] = In vivo toxicity in KM mouse assessed as urea (UREA) in blood collected from eyes of mouse at 15 mg/kg, sc; type: organism-based
[23] = In vivo toxicity in KM mouse assessed as albumin (ALB) in blood collected from eyes of mouse at 15 mg/kg, sc; type: organism-based
[24] = In vivo toxicity in KM mouse assessed as creatinine (CREA) in blood collected from eyes of mouse at 15 mg/kg, sc; type: organism-based
[25] = tested on: Staphylococcus aureus; test: In vivo antibacterial activity against clinically isolated Staphylococcus aureus ATCC29213 infected KM mouse skin abscess model assessed as reduction in size of abscess in dorsal skin and intradermal tissue at 5 mg/kg, sc measured after 24 hrs by Hematoxylin and Eosin staining based analysis; type: functional, organism-based
[26] = tested on: Staphylococcus aureus; test: In vivo antibacterial activity against clinically isolated Staphylococcus aureus ATCC29213 infected KM mouse skin abscess model assessed as aggregation of inflammatory cells into epidermis and dermis of skin at 5 mg/kg, sc measured after 24 hrs by Hematoxylin and Eosin staining based analysis; type: functional, organism-based
[27] = tested on: Staphylococcus aureus; test: In vivo antibacterial activity against clinically isolated Staphylococcus aureus ATCC29213 infected KM mouse skin abscess model assessed as decrease in bacterial survival in skin at 5 mg/kg, sc measured after 24 hrs by Hematoxylin and Eosin staining based analysis; type: functional, organism-based
[28] = tested on: Staphylococcus aureus; test: In vivo antibacterial activity against clinically isolated Staphylococcus aureus ATCC29213 infected KM mouse skin abscess model assessed as decrease in bacterial load in skin at 5 mg/kg, sc measured after 24 hrs by Hematoxylin and Eosin staining based analysis; type: functional, organism-based
[29] = tested on: RAW264.7; test: Anti-inflammatory activity against mouse RAW264.7 cells assessed as inhibition LPS-stimulated NO production 0.5 to 4 ug/ml measured after 24 hrs by NO assay kit; type: functional, cell-based; settings: dose 0.5-4 µg/ml
[30] = tested on: Staphylococcus aureus; test: Anti-biofilm activity against clinically isolated Staphylococcus aureus ATCC29213 assessed inhibition of biofilm formation at 0.5 to 128 ug/ml measured after 12 to 16 hrs incubation by crystal violet staining based analysis; type: functional, organism-based; settings: dose 0.5-128 µg/ml, time 12-16 hrs
[31] = tested on: Escherichia coli; test: Anti-biofilm activity against clinically isolated Escherichia coli DE17 assessed inhibition of biofilm formation at 0.5 to 128 ug/ml measured after 12 to 16 hrs incubation by crystal violet staining based analysis; type: functional, organism-based; settings: dose 0.5-128 µg/ml, time 12-16 hrs
[32] = tested on: Staphylococcus aureus; test: Anti-biofilm activity against clinically isolated Staphylococcus aureus ATCC29213 assessed inhibition of biofilm formation at 2 ug/ml measured after 12 to 16 hrs incubation by crystal violet staining based analysis; type: functional; settings: time 12-16 hrs
[33] = tested on: Staphylococcus aureus; test: Anti-biofilm activity against clinically isolated Staphylococcus aureus ATCC29213 assessed inhibition of biofilm formation at 4 ug/ml measured after 12 to 16 hrs incubation by crystal violet staining based analysis; type: functional; settings: time 12-16 hrs
[34] = tested on: Escherichia coli; test: Anti-biofilm activity against clinically isolated Escherichia coli DE17 assessed inhibition of biofilm formation at 8 ug/ml measured after 12 to 16 hrs incubation by crystal violet staining based analysis; type: functional; settings: time 12-16 hrs
[35] = tested on: Escherichia coli; test: Anti-biofilm activity against clinically isolated Escherichia coli DE17 assessed inhibition of biofilm formation at 16 ug/ml measured after 12 to 16 hrs incubation by crystal violet staining based analysis; type: functional; settings: time 12-16 hrs
[36] = tested on: Staphylococcus aureus; test: Biofilm eradication activity against Staphylococcus aureus ATCC29213 assessed biofilm scavenging at 2 ug/ml measured after 12 to 16 hrs incubation by crystal violet staining based analysis; type: functional, organism-based; settings: dose 2.0 µg/ml, time 12-16 hrs
[37] = tested on: Escherichia coli; test: Biofilm eradication activity against Escherichia coli DE17 assessed biofilm scavenging at 8 ug/ml measured after 12 to 16 hrs incubation by crystal violet staining based analysis; type: functional, organism-based; settings: dose 8.0 µg/ml, time 12-16 hrs
[38] = tested on: Staphylococcus aureus; test: Antibacterial activity against clinically isolated Staphylococcus aureus ATCC29213 assessed as inhibition of bacterial growth at 2 times of MIC measured after 18 hrs by broth microdilution method; type: functional
[39] = tested on: Staphylococcus aureus; test: Antibacterial activity against clinically isolated Staphylococcus aureus ATCC29213 assessed as inhibition of bacterial growth at 1/2 times of MIC measured after 24 consecutive passages by broth microdilution method; type: functional, organism-based
[40] = tested on: Staphylococcus aureus; test: Resistance index, ratio of MIC100 for antibacterial activity against clinically isolated Staphylococcus aureus ATCC29213 assessed as inhibition of bacterial growth at 1/2 times of MIC measured after 24 consecutive passages to MIC100 for antibacterial activity against clinically isolated Staphylococcus aureus ATCC29213; type: functional

Structure (SMILES): CCN(CC)CCCCCCCCCCCCOc1ccc2ccc(=O)oc2c1
- MIC [1]: > 256 µg/mL
- MIC [2]: > 256 µg/mL
- MIC [3]: 1 µg/mL (≈ 2.49 µM)
- MIC [4]: 2 µg/mL (≈ 4.98 µM)
- MIC [5]: 1 µg/mL (≈ 2.49 µM)
- MIC [6]: 4 µg/mL (≈ 9.96 µM)
- MIC [7]: 2 µg/mL (≈ 4.98 µM)
- MIC [8]: 4 µg/mL (≈ 9.96 µM)
- Activity [9]: Toxic
- survival [10]: 100%
- survival [11]: 100%
- survival [12]: 100%
- survival [13]: 100%
- survival [14]: 100%
- Activity [15]: Toxic
- Activity [16]: Non-toxic
- Activity [17]: Non-toxic
- Activity [18]: Non-toxic
- Activity [19]: Non-toxic
- Activity [20]: Non-toxic
- Activity [21]: Non-toxic
- Activity [22]: Non-toxic
- Activity [23]: Non-toxic
- Activity [24]: Non-toxic
- Activity [25]: Active
- Activity [26]: Active
- Activity [27]: Active
- Activity [28]: Active
- Activity [29]: Active
- Activity [30]: Dose-dependent-effect
- Activity [31]: Dose-dependent-effect
- inhibition at 2 µg/mL [32]: 100%
- inhibition at 4 µg/mL [33]: 100%
- inhibition at 8 µg/mL [34]: 100%
- inhibition at 16 µg/mL [35]: 100%
- Activity [36]: Active
- Activity [37]: Active
- inhibition (INH) [38]: 100%
- Activity [39]: Active

Structure (SMILES): Cc1onc(-c2ccccc2)c1C(=O)N[C@@H]1C(=O)N2[C@@H]1SC(C)(C)[C@@H]2C(=O)O [OXACILLIN]
- Ratio [40]: 8
